Source: ChEMBL document CHEMBL1149022, “Antitumor agents, 85. Cicutoxin, an antileukemic principle from Cicuta maculata, and the cytotoxicity of the related derivatives” (1986)
Values after ≈ are worked out from the molar mass of the structure shown.

What follows are compounds tested on P388 (assay: Antileukemic activity against mouse P388 cells xenografted in mouse at 1 mg/kg dosed for 3 days relative to control). Conditions: not given.
Type: functional

Compound `CCC[C@@H](O)/C=C/C=C/C=C/C#CC#CCCCO` [CICUTOXIN] has a T/C of 165%.

The compounds below were run on KB (assay: Cytotoxicity against human KB cells). Conditions: read-out: ED50 (the source's name).
Type: functional

Going from `CCC[C@@H](O)/C=C/C=C/C=C/C#CC#CCCCO` [CICUTOXIN] to `CCCC(=O)/C=C/C=C/C=C/C#CC#CCCCO`, the EC50 rises from 2 µg/mL (≈ 7.74 µM) to > 4 µg/mL.

`CCCC(/C=C/C=C/C=C/C#CC#CCCCOC(C)=O)OC(C)=O` (centres undefined) and `CCCC(O)/C=C/C=C/C=C/C#CC#CCCCOC(=O)c1ccccc1` (centres undefined) cannot be ordered by EC50: > 4 µg/mL for the first, > 4 µg/mL for the second.

`CCCC(/C=C/C=C/C=C/C#CC#CCCCOCOCCOC)OCOCCOC` (centres undefined) and `CCCC(/C=C/C=C/C=C/C#CC#CCCCOCOCc1ccccc1)OCOCc1ccccc1` (centres undefined) cannot be ordered by EC50: > 4 µg/mL for the first, > 4 µg/mL for the second.

For `CCCC(O)CCCCCCCCCCCCCO` (centres undefined), the EC50 was > 4 µg/mL.

These compounds were tested on P388 (assay: Antileukemic activity against mouse P388 cells xenografted in mouse at 200 mg/kg dosed for 1 day relative to control). Conditions: not given.
Type: functional

Work on `O=c1[nH]cc(F)c(=O)[nH]1` [FLUOROURACIL] yielded a T/C of 135%.
